pIC50: −log10 of the molar value.

The species named for the first test is Homo sapiens. The experiment in a line: Inhibition of amyloid beta (17 to 42) (unknown origin) aggregation at 10 uM by thioflavin T-based fluorimetric assay.
By inhibition is commonly meant the drop in the measured response relative to a control, in per cent. High values mean a response far below the control, low ones a response near the control. Consider `CCN(CC)CCCCCCCN1C(=O)c2ccccc2C1=O`, for which the inhibition was found to be 39.4%.
The same measure, in the same setting: for `CCN(CC)CCCCCCN1C(=O)c2ccccc2C1=O` the value was 0%; for `O=C1c2ccccc2C(=O)N1CCCCCNCc1ccccc1`, 10%; for `c1ccc(CN2CCC(NCCCCCCn3ccc4ccccc43)CC2)cc1`, 56%.
On the same count and under the same terms, as for `O=C1c2ccccc2C(=O)N1CCCNC1CCN(Cc2ccccc2)CC1`, the figure is 10%.

Tested on in another test: not listed separately
The test is described as follows: Inhibition of Tg2576 mouse amyloid beta40 aggregation measured after 3 days by ELISA. Background: ELISA stands for enzyme-linked immunosorbent assay.
What is called pIC50 is the IC50 on a negative log10 scale, so that one unit is a factor of ten. The low end stands for a large IC50, the high end for a small IC50. In turn, `COc1cc(/C=C/C(=O)CC(=O)/C=C/c2ccc(O)c(OC)c2)ccc1O` [CURCUMIN] had a pIC50 of 6.00.

(Values after ChEMBL document CHEMBL3872251, “Computational approach for the assessment of inhibitory potency against beta-amyloid aggregation” (Bioorg Med Chem Lett, 2017).)
